Test results from patent publication US6541463B1, “Inhibitors of type 5 and type 3 17β-hydroxysteroid dehydrogenase and methods for their use” (Endorecherche, Inc., priority 1998, dated 2003).
Like-named read-outs stand apart in the source and are kept apart here.

Key:
[1] = test system: Shionogi mouse mammary carcinoma cells; assay: Androgenic activity: stimulation of proliferation of Shionogi cells; format: cell-based
Procedure: In column 9, the androgenic activity of preferred type 5 inhibitors expressed as the percentage of stimulation of proliferation of Shionogi cells at concentrations of 10^−7 M (left number) and 10^−6 M (right number) of inhibitor. The manner in which the stimulation is determined is described in “Other Tests; B-Androgenic/Antiandrogenic Activity”. Lower numbers are desirable. ND means that a determination was not done.
(§1) Androgenic/antiandrogenic activity of some preferred compounds has been measured using the Shionogi mouse mammary carcinoma cells.
(§2) Minimal essential culture medium (MEM), non-essential amino acids, and fetal calf serum were purchased from Flow Laboratories. In order to remove endogenous steroids, serum was incubated overnight at 4° C. with 1% activated charcoal (Norit A, Fisher) and 0.1% Dextran T-70 (Pharmacia). A 2-h supplementary adsorption was performed at 25° C. in order to further remove protein-bound steroids. Serum was also inactivated by a 20-min incubation at 56° C.
(§3) 5α-dihydrotestosterone (DHT) was obtained from Steraloids. The antiandrogen hydroxyflutamide (OH-FLU) was kindly supplied by Drs. T. L. Nagabuschan and R. Neri (Schering Corporation, Kenilworth, U.S.A.).
(§4) Shionogi male mice bearing androgen-sensitive mammary tumors were obtained from Drs. Keishi Matsumoto, Osaka, Japan, and Yvonne Lefebvre, Ottawa, Canada. For primary culture, tumors were excised and washed in ice-cold sterile 25 mM Hepes buffer (137 mM NaCl; 5 mM KCl; 0.7 mM Na2HPO4; 10 mM glucose, pH 7.2). After mincing with scissors, the tumor minces were digested for 2 h at 37° C. in Hepes buffer containing 3.8 mg/ml collagenase (Clostridium, Boehringer), 1.5 mg/ml hyaluronidase II (Sigma), and 3% bovine serum albumin fraction V (Schwartz-Mann). Dispersed cells were collected by centrifugation (500×g for 10 min), washed twice by suspension in minimal essential medium (MEM) containing 5% dextran-coated charcoal-treated fetal calf serum (DCC-FCS), 1% non-essential amino acids, 10 IU/ml penicillin, 50 μg/ml streptomycin, and 100 nM dihydrotestosterone (DHT) (Steraloids).
(§5) Cells were plated in the same medium at a density of 75 000 cells/ml in 75 cm^2 flasks under an atmosphere of 5% carbon dioxide in air at 37° C. The medium was changed weekly. The steroids and antisteroids were dissolved in ethanol and kept in stock solutions chosen to yield final ethanol concentrations less than 0.01% in the culture medium.
(§6) Cells were subcultured at near-confidence by gentle digestion in a solution of 0.1% pancreatin (Flow Laboratories) in Hepes buffer containing 3 mM ethylenediaminetetraacetic acid (EDTA) (pH 7.2). Cells were pelleted by centrifugation, resuspended in culture medium, counted in a Coulter counter, and replated as described above. Soft agar cloning was performed as described (Stanley et al., Cell 10: 35-44, 1977) in the presence of 100 nM DHT.
(§7) Cells were plated in 24-well plates at a density of 20 000 cells/well. The indicated increasing concentrations of agents were added to triplicate dishes, and cells were grown for 10-12 days with changes of medium every 3-4 days. Cell number was measured by direct counting in a Coulter counter.
(§8) ED50 values of action of DHT and glucocorticoids were calculated according to a least-square regression as described (Rodbard, Endocrinology 94: 1427-1431, 1974). Statistical significance was calculated according to a multiple-range test (Kramer, Biometrics 12: 307-310,1956).

[2] = test system: Shionogi mouse mammary carcinoma cells; assay: Antiandrogenic activity: inhibition of DHT-induced proliferation of Shionogi cells; format: cell-based; conditions: for IC50: Mus musculus
Procedure: The manner in which the inhibition is determined is described in “Other Tests; B-Androgenic/Antiandrogenic Activity”. Lower numbers are desirable. ND means that a determination was not done.
as §1, §2, §3, §4, §5, §6, §7, §8

[3] = Table 4′, DHT-induced proliferation, E^−6 (10^−6 M)
[4] = Table 4′, DHT-induced proliferation, E^−7
[5] = read-out: Antiandrogenic Activity Shionogi, DHT [IC50]

Row | Compound | Androgenic Activity Shionogi, Basal E^−6 ([1]; Table 4′, E^−6) [%] | Androgenic Activity Shionogi, Basal E^−7 ([1]; Table 4′, E^−7) [%] | Antiandrogenic Activity Shionogi, DHT E^−6 [2, 3] [%] | Antiandrogenic Activity Shionogi, DHT E^−7 [2, 4] [%] | other results
1 | CC1(C)CC[C@@]2(CC[C@H]3[C@@H]4CCc5c(cc(Br)c(O)c5Br)[C@H]4CC[C@@]32C)OC1=O [EM-1382-CS] | 0 | 0 | 0 | 0 | –
2 | CCS(=O)(=O)Oc1ccc2c(c1)CCC1C2CCC2(C)C1CCC21CCC(C)(C)C(=O)O1 (stereo not drawn) [EM-1364-CS] | −16 | 0 | −59 | −11 | –
3 | CC1(C)CCC2(CCC3C4CCc5cc(OS(C)(=O)=O)ccc5C4CCC32C)OC1=O (stereo not drawn) [EM-1365-CS] | −28 | 4 | −53 | −17 | –
4 | CC1=C[C@@H]2[C@H](CC[C@]3(C)C(=O)C4(CCCCC4)C[C@@H]23)[C@@]2(C)CCC(=O)C=C12 [EM-925] | – | – | – | – | Androgenic Activity Shionogi, Basal E^−6 ([1]; E^−6): −4; Androgenic Activity Shionogi, Basal E^−7 ([1]; E^−7): 11; Antiandrogenic Activity Shionogi, DHT E^−6 ([2]; with DHT, E^−6): −7; Antiandrogenic Activity Shionogi, DHT E^−7 ([2]; with DHT, E^−7): 15
5 | CC1(C)CC[C@@]2(CCC3C4CCc5cc(F)ccc5C4CC[C@@]32C)OC1=O (stereo partly drawn) [EM-1157-CS] | −12 | 16 | −19 | 0 | –
6 | CN(C)C(=O)c1cc2c(cc1O)CCC1C2CCC2(C)C1CCC21CCC(C)(C)C(=O)O1 (stereo not drawn) [EM-01661-B] | −13 | 0 | −15 | 3 | –
7 | CC1(C)CC[C@@]2(CCC3C4CCc5cc(C(=O)O)ccc5C4CC[C@@]32C)OC1=O (stereo partly drawn) [EM-1401, 3-Carboxy-1,3,5(10)-estratrien-17(R)-spiro-2′-(5′,5′-dimethyl-6′-oxo)tetrahydropyran] | 0 | 2 | – | – | IC50 ([2]; Table 4′, bracketed values, read-out: Antiandrogenic Activity Shionogi, DHT [IC50 (nM)]): > 1000 nM
8 | CC1(C)CCC2(CCC3C4CCc5cc(O)c([N+](=O)[O-])cc5C4CCC32C)OC1=O (stereo not drawn) [EM-1125-CS] | −10 | 3 | −43 | −30 | –
9 | CCC[C@]1(F)CC2C3C=CC4=CC(=O)CC[C@]4(C)C3CC[C@]2(C)C1=O (stereo partly drawn) [EM-1183] | – | – | – | – | Androgenic Activity Shionogi, Basal E^−6 ([1]; E^−6): −17; Androgenic Activity Shionogi, Basal E^−7 ([1]; E^−7): 0; Antiandrogenic Activity Shionogi, DHT E^−6 ([2]; with DHT, E^−6): −51; Antiandrogenic Activity Shionogi, DHT E^−7 ([2]; with DHT, E^−7): 0
10 | COc1ccc(CC(=O)O[C@]2(C(C)=O)CCC3C4C=C(C)C5=CC(=O)C=C[C@]5(C)C4CC[C@@]32C)cc1 (stereo partly drawn) [EM-1291] | – | – | – | – | Androgenic Activity Shionogi, Basal ([1]; E^−6): −44; Androgenic Activity Shionogi, Basal ([1]; E^−7): −8; Antiandrogenic Activity Shionogi, DHT ([2]; E^−6): −48; Antiandrogenic Activity Shionogi, DHT ([2]; E^−7): −13
11 | COCCOc1cc2c(cc1C(F)(F)F)[C@H]1CC[C@@]3(C)[C@@H](CC[C@@]34CCC(C)(C)C(=O)O4)[C@@H]1CC2 [EM-1438, 3-(2′-Methoxyethoxy)-2-trifluoromethyl-1,3,5(10)-estratrien-17(R)-spiro-2′-(5′,5′-dimethyl-6′-oxo)tetrahydropyran] | −14 | 10 | −53 | 0 | –
12 | CCCC(=O)OC1(C(C)=O)CCC2C3C=C(C)C4=CC(=O)CC(C)C4(C)C3CCC21C (stereo not drawn) [CS-245] | – | – | – | – | Androgenic Activity Shionogi, Basal ([1]; E^−6): −34; Androgenic Activity Shionogi, Basal ([1]; E^−7): −28; Antiandrogenic Activity Shionogi, DHT ([2]; E^−6): −109; Antiandrogenic Activity Shionogi, DHT ([2]; E^−7): −106; IC50 [2, 5]: 12 nM
13 | CC1(C)CCC2(CCC3C4CCc5c(cc(Cl)c(OS(C)(=O)=O)c5Cl)C4CCC32C)OC1=O (stereo not drawn) [EM-1392-CS] | −35 | 7 | −75 | 0 | –
14 | CC1(C)CCC2(CCC3C4CCc5cc(OCCN6CCCCC6)ccc5C4CCC32C)OC1=O [EM-1390-CS, 3-(N-piperidyl-ethyl)-1,3,5(10)-estratrien-17(R)-spiro-2′-(5′,5′-dimethyl-6′-oxo)-tetrahydropyran] | −43 | −18 | −119 | −36 | –
15 | COCCOc1cc2c(cc1C(=O)N(C)C)C1CCC3(C)C(CCC34CCC(C)(C)C(=O)O4)C1CC2 (stereo not drawn) [EM-1413-CS] | – | – | −44 | – | –
16 | CCOc1ccc2c(c1)CCC1C2CC[C@@]2(C)C1CC[C@@]21CCC(C)(C)C(=O)O1 (stereo partly drawn) [EM-1369, 3-Ethoxy-1,3,5(10)-estratrien-17(R)-spiro-2′-(5′,5′-dimethyl-6′-oxo)-tetrahydropyran] | 0 | 0 | −24 | 0 | –
17 | COc1cc2c(cc1C(F)(F)F)C1CCC3(C)C(CCC34CCC(C)(C)C(=O)O4)C1CC2 [EM-1409, 3-Methoxy-2-trifluoromethyl-1,3,5(10)-estratrien-17(R)-spiro-2′-(5′,5′-dimethyl-6′-oxo)tetrahydropyran] | −23 | 5 | −105 | −5 | –
18 | COC(=O)C1CCC2(CCC3C4CCc5cc(O)ccc5C4CCC32C)OC1=O [PB-132-146, 3-Hydroxy-1,3,5(10)-estratrien-17(R)-2′-(5′-methoxycarbonyl-6′-oxo)tetrahydropyran] | 0 | 29 | −40 | 14 | –
19 | COCCOc1ccc2c(c1)C(=O)CC1C2CCC2(C)C1CCC21CCC(C)(C)C(=O)O1 (stereo not drawn) [EM-1408-CS] | −12 | 0 | −94 | −19 | –
20 | COCCOc1cc2c(cc1C#N)C1CC[C@@]3(C)C(CC[C@@]34CCC(C)(C)C(=O)O4)C1CC2 (stereo partly drawn) [EM-1396] | −15 | 0 | −29 | −16 | –
21 | COCCOc1cc2c(cc1C(=O)OC)C1CC[C@@]3(C)C(CC[C@@]34CCC(C)(C)C(=O)O4)C1CC2 (stereo partly drawn) [EM-1402-CS, 2-Carbomethoxy-3-(2″-methoxyethyloxy)-1,3,5(10)-estratrien 17(R)-spiro-2′-(5′,5′-dimethyl-6′-oxo)tetrahydropyran] | −9 | 0 | −87 | −13 | –
22 | CC(=O)O[C@]1(C(C)=O)CCC2C3C=C(C)C4=CC(=O)CC[C@]4(C)C3CC[C@@]21C (stereo partly drawn) [megestrol acetate, reference compound] | – | – | – | – | IC50 [2, 5]: 10 nM
23 | CCCC(=O)O[C@]1(C)C(=O)CCC2C3C=C(C)C4=CC(=O)CC[C@]4(C)C3CC[C@@]21C (stereo partly drawn) [EM-1078] | – | – | – | – | Androgenic Activity Shionogi, Basal E^−6 ([1]; E^−6): 45; Androgenic Activity Shionogi, Basal E^−7 ([1]; E^−7): 5; Antiandrogenic Activity Shionogi, DHT E^−6 ([2]; with DHT, E^−6): −72; Antiandrogenic Activity Shionogi, DHT E^−7 ([2]; with DHT, E^−7): −79
24 | COc1ccc2c(c1)CCC1C2CCC2(C)C1CCC21CCC(C)(C)C(=O)O1 (stereo not drawn) [EM-1370] | −11 | 12 | −28 | 0 | –
